Laboratory results from ChEMBL document CHEMBL1148034, “On the structures of crambescins B and C1” (J Nat Prod, 1993).
Values after ≈ are worked out from the molar mass of the structure shown.

Test system: L1210
Assay: Cytotoxicity against mouse L1210 cells after 72 hrs
Assay type: functional, cell-based
Details: L1210, 72 h

**Q.** CCCCCCCCC[C@H]1NC(N)=N[C@@]2(CCCO2)[C@H]1C(=O)OCCCCCCCNC(=N)N [CRAMBESCIN B] was tested. Which IC50 did it give?
**A.** 1 µg/mL (≈ 2.08 µM)
